According to patent US11284623B2 (priority 2012, dated 2022):
Like-named read-outs stand apart in the source and are kept apart here.

Key:
Format in all cases: in vivo
[1] = test system: Rhizoctonia solani (AG 2); experiment: Use example FG-8: efficacy against R. solani on roots, pot trials, seed treatment; conditions: 10 g ai per 100 kg seeds
Description: (§1) Triticonazole was applied as commercial seed treatment formulation PREMIS 25 FS (25 g/L a.i., BASF SE, Ludwigshafen, Germany). Pyraclostrobin was applied as commercial seed treatment formulation STAMINA (200 g/L a.i., BASF SE, Ludwigshafen, Germany).
(§2) In 4 pot tests in the greenhouse in Limburgerhof, Bacillus subtilis MBI600, as SC formulation of spores with CFU of about 4×10^11 per ml, was tested in the crops corn and rape seed against different pathogens (Fusarium, Rhizoctonia, Scleroftinia) as solo product and in combination with triticonazole or pyraclostrobin. […]
(§3) The efficacy (E) was calculated using the Abbot's formula: E=(1−α/β)·100 • α corresponds to the fungicidal infection of the treated plants in % and • β corresponds to the fungicidal infection of the untreated (control) plants in %
(§4) The expected efficacies of active compound combinations were determined using Colby's formula (Colby, S. R. “Calculating synergistic and antagonistic responses of herbicide combinations”, Weeds 15, pp. 20-22, 1967) and compared with the observed efficacies. […]
(§5) For the assessment, the roots were washed out to evaluate the disease symptoms on the roots. […] In corn in addition the disease symptoms on the first leaf were evaluated according to a 2 class evaluation. […]

[2] = test system: Rhizoctonia solani (AG 2); experiment: Use example FG-8: efficacy against R. solani assessed on first leaf, pot trials, seed treatment; conditions: 10 g ai per 100 kg seeds, corn
Description: as §1, §2, §3, §4, §5

[3] = test system: Rhizoctonia solani (AG 2); experiment: Use example FG-8: root mass affected by R. solani, pot trials, seed treatment; conditions: 10 g ai per 100 kg seeds; corn infected with R. solani
Description: as §1
In 4 pot tests in the greenhouse in Limburgerhof, Bacillus subtilis MBI600, as SC formulation of spores with CFU of about 4×10^11 per ml, was tested in the crops corn and rape seed against different pathogens (Fusarium, Rhizoctonia, Scleroftinia) as solo product and in combination with triticonazole or pyraclostrobin. The application of the different products was done as seed treatment and the seeds were treated in the BASF Seed Solutions Technology Center (SSTC) Limburgerhof using a batch lab treater. […]
as §4
For the assessment, the roots were washed out to evaluate the disease symptoms on the roots. […] In corn in addition the disease symptoms on the first leaf were evaluated according to a 2 class evaluation. The figures from the class evaluation were converted into efficacies in % of the untreated control and the efficacy (E) was calculated as follows using Abbot's formula.

Fusarium graminearum [4] = conditions: 5 g ai per 100 kg seeds; corn, lower roots; % of untreated control (Abbot)
Fusarium graminearum [5] = conditions: 5 g ai per 100 kg seeds; corn, mesocotyl

COC(=O)N(OC)c1ccccc1COc1ccn(-c2ccc(Cl)cc2)n1 [Pyraclostrobin]
Observed efficacy (%) [1]: 28.7% | Observed efficacy (%) [2]: 1.9% | Root mass in % of uninfected control [3]: 23.3%

CC1(C)CCC(=Cc2ccc(Cl)cc2)C1(O)Cn1cncn1 (centres unmarked) [Triticonazole]
Observed efficacy (Fusarium graminearum [4]): 39.8% | Observed efficacy (Fusarium graminearum [5]): 60%
